The values that follow come from patent publication US20120172384A1, “HETEROCYCLYLAMINOPYRIMIDINES AS KINASE INHIBITORS” (priority 2009, published 2012).

For one test, the target named is T1, ZAP-70 (Homo sapiens, UniProt P43403).
T1 construct: endogenous in cells
T1 sequence (P43403 1-619): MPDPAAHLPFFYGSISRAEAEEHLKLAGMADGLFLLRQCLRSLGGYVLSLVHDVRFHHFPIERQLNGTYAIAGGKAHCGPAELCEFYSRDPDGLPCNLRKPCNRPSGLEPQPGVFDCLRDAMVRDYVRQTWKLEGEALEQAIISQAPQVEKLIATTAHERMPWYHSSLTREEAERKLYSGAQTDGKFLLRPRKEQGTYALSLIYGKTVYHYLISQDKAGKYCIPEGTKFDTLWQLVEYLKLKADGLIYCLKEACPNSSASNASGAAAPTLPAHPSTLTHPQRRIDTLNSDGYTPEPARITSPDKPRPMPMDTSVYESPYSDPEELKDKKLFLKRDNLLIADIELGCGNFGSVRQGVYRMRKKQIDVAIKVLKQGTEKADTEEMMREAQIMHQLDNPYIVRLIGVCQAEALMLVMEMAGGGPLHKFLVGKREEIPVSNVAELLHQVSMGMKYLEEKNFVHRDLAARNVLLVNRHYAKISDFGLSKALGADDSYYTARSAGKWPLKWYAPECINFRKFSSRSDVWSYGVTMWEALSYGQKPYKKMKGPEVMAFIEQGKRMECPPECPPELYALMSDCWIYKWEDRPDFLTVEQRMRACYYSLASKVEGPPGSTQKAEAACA
The test is described as follows: ZAP-70 kinobeads assay. The class given is binding. Conditions: cell lysate, dot blot with ZAP-70 antibody. On the procedure:
(§1) The compounds of the present invention as described in the previous examples were tested in the ZAP-70 kinobeads assay as described (EP-A 1862802 and WO-A 2007/137867). Briefly, test compounds (at various concentrations) and the affinity matrix with the immobilized aminopyrido-pyrimidine ligand 24 are added to cell lysate aliquots and allowed to bind to the proteins in the lysate sample. After the incubation time the beads with captured proteins are separated from the lysate. Bound proteins are then eluted and the presence ZAP-70 is detected and quantified using a specific antibody in a dot blot procedure and the Odyssey infrared detection system.

In a further test the target is T2, JAK3 (Homo sapiens, UniProt P52333).
T2 construct: endogenous in cells
T2 sequence (P52333 1-1124): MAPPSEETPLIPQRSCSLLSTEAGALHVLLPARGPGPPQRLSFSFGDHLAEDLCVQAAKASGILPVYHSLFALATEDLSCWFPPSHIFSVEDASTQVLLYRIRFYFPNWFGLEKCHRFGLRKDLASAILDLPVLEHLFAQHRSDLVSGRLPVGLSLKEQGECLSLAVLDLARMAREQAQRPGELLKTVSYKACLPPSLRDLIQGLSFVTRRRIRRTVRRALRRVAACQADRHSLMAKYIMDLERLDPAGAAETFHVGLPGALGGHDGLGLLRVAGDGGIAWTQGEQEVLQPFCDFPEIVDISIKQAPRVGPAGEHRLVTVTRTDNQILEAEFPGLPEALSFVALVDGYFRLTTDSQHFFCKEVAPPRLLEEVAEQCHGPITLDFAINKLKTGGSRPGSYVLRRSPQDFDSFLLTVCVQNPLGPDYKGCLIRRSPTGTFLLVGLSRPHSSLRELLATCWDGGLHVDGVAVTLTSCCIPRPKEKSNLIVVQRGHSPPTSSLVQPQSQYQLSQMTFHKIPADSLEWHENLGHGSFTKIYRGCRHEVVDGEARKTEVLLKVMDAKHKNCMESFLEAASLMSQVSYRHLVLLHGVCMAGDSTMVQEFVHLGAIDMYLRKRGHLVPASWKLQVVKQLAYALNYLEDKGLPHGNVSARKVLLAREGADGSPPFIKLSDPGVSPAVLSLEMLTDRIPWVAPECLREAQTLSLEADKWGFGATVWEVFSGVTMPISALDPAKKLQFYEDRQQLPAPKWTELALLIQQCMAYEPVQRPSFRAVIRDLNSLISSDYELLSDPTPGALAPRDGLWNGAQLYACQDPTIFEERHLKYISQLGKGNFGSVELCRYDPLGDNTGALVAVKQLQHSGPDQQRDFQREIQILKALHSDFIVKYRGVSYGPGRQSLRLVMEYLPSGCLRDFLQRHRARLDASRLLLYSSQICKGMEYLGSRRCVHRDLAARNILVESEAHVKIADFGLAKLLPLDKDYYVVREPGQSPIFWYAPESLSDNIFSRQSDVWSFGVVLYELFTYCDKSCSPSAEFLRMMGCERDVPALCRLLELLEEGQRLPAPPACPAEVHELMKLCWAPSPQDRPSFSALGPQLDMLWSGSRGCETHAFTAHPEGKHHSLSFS
The test is described as follows: JAK3 kinobeads assay. It counts as binding. Conditions: cell lysate, dot blot with JAK3 specific antibody. The procedure:
as §1
Compounds were tested by the procedure described in Example 102 but using a JAK3 specific antibody (Cell Signaling Technology, Inc., Danvers, US, catalogue number 3775) instead of a ZAP70 antibody.

In turn, `COc1ccc(Nc2nc(Nc3cc(C)nn3C(C)C)ncc2Cl)c(NS(C)(=O)=O)c1` [Example 71, N-(2-((5-chloro-2-((1-isopropyl-3-methyl-1H-pyrazol-5-yl)amino)pyrimidin-4-yl)amino)-5-methoxyphenyl)methanesulfonamide] had an IC50 on ZAP-70 of 100 to 1000 nM. At ZAP-70, `CCn1ncc(C)c1Nc1ncc(Cl)c(Nc2ccc(OC)cc2NS(C)(=O)=O)n1` [Example 26, N-(2-(5-chloro-2-(1-ethyl-4-methyl-1H-pyrazol-5-ylamino)pyrimidin-4-ylamino)-5-methoxyphenyl)methanesulfonamide] registered an IC50 of 1000 to 10000 nM.

Molecule `COc1ccc(Nc2nc(Nc3ccnn3CC(C)C)ncc2Cl)c(NS(C)(=O)=O)c1` [Example 98, N-(2-((5-chloro-2-((1-isobutyl-1H-pyrazol-5-yl)amino)pyrimidin-4-yl)amino)-5-methoxyphenyl)methanesulfonamide] came in with an IC50 on ZAP-70 of 1000 to 10000 nM. On the same count and under the same terms, in the case of `COc1ccc(Nc2nc(Nc3cc(C)nn3CC(C)C)ncc2Cl)c(NS(C)(=O)=O)c1` [Example 95, N-(2-((5-chloro-2-((1-isobutyl-3-methyl-1H-pyrazol-5-yl)amino)pyrimidin-4-yl)amino)-5-methoxyphenyl)methanesulfonamide] it was 100 to 1000 nM; in that of `CCCCn1nccc1Nc1ncc(Cl)c(Nc2ccc(OC)cc2NS(C)(=O)=O)n1` [Example 87, N-(2-((2-((1-butyl-1H-pyrazol-5-yl)amino)-5-chloropyrimidin-4-yl)amino)-5-methoxyphenyl)methanesulfonamide], 100 to 1000 nM; in that of `CCCn1nccc1Nc1ncc(Cl)c(Nc2ccc(OC)cc2NS(C)(=O)=O)n1` [Example 76, N-(2-((5-chloro-2-((1-propyl-1H-pyrazol-5-yl)amino)pyrimidin-4-yl)amino)-5-methoxyphenyl)methanesulfonamide], 100 to 1000 nM. On ZAP-70, `COc1ccc(Nc2nc(Nc3c(C)cnn3C)ncc2Cl)c(NS(C)(=O)=O)c1` [Example 14, N-(2-(5-chloro-2-(1,4-dimethyl-1H-pyrazol-5-ylamino)pyrimidin-4-ylamino)-5-methoxyphenyl)methanesulfonamide] displayed an IC50 of 1000 to 10000 nM.

On ZAP-70, `COc1ccc(Nc2nc(Nc3ccnn3CC3CC3)ncc2Cl)c(NS(C)(=O)=O)c1` [Example 60, N-(2-((5-chloro-2-((1-(cyclopropylmethyl)-1H-pyrazol-5-yl)amino)pyrimidin-4-yl)amino)-5-methoxyphenyl)methanesulfonamide] returned an IC50 of 100 to 1000 nM.

`COc1nn(CC(F)(F)F)cc1Nc1ncc(F)c(Nc2ccccc2NS(C)(=O)=O)n1` [Example 74, N-(2-((5-fluoro-2-((3-methoxy-1-(2,2,2-trifluoroethyl)-1H-pyrazol-4-yl)amino)pyrimidin-4-yl)amino)phenyl)methanesulfonamide] came in with an IC50 at JAK3 of 1000 to 10000 nM. Still for that read-out and setting: in the case of `COc1nn(CC(F)(F)F)cc1Nc1ncc(Cl)c(Nc2ccccc2NS(C)(=O)=O)n1` [Example 82, N-(2-((5-chloro-2-((3-methoxy-1-(2,2,2-trifluoroethyl)-1H-pyrazol-4-yl)amino)pyrimidin-4-yl)amino)phenyl)methanesulfonamide] it was 100 to 1000 nM. On the same count and under the same terms, in the case of `CCn1nc(Nc2ncc(Cl)c(Nc3ccccc3NS(C)(=O)=O)n2)cc1C` [Example 59, N-(2-((5-chloro-2-((1-ethyl-5-methyl-1H-pyrazol-3-yl)amino)pyrimidin-4-yl)amino)phenyl)methanesulfonamide] it was at most 100 nM. Molecule `Cn1nc(Nc2ncc(Cl)c(Nc3ccccc3NS(C)(=O)=O)n2)cc1C(=O)NCCO` [Example 101, 3-((5-chloro-4-((2-(methylsulfonamido)phenyl)amino)pyrimidin-2-yl)amino)-N-(2-hydroxyethyl)-1-methyl-1H-pyrazole-5-carboxamide] showed an IC50 at JAK3 of at most 100 nM. The same measure, in the same setting: as for `COCCn1cc(Nc2ncc(Cl)c(Nc3cccc(F)c3NS(C)(=O)=O)n2)cn1` [Example 93, N-(2-((5-chloro-2-((1-(2-methoxyethyl)-1H-pyrazol-4-yl)amino)pyrimidin-4-yl)amino)-6-fluorophenyl)methanesulfonamide], the figure is at most 100 nM. Same read-out and setting: as for `Cn1ccc(Nc2ncc(Cl)c(Nc3ccccc3NS(=O)(=O)C3CC3)n2)n1` [Example 53, N-(2-((5-chloro-2-((1-methyl-1H-pyrazol-3-yl)amino)pyrimidin-4-yl)amino)phenyl)cyclopropanesulfonamide], the figure is 100 to 1000 nM; as for `Cn1cc(Nc2ncc(F)c(Nc3cccc(F)c3NS(C)(=O)=O)n2)cn1` [Example 99, N-(2-fluoro-6-((5-fluoro-2-((1-methyl-1H-pyrazol-4-yl)amino)pyrimidin-4-yl)amino)phenyl)methanesulfonamide], at most 100 nM; as for `COc1nn(CC(F)F)cc1Nc1ncc(Cl)c(Nc2ccccc2NS(C)(=O)=O)n1` [Example 80, N-(2-((5-chloro-2-((1-(2,2-difluoroethyl)-3-methoxy-1H-pyrazol-4-yl)amino)pyrimidin-4-yl)amino)phenyl)methanesulfonamide], at most 100 nM.

In turn, `CS(=O)(=O)Nc1ccccc1Nc1nc(Nc2cnn(CCCC#N)c2)ncc1Cl` [Example 65, N-(2-((5-chloro-2-((1-(3-cyanopropyl)-1H-pyrazol-4-yl)amino)pyrimidin-4-yl)amino)phenyl)methanesulfonamide] registered an IC50 against JAK3 of at most 100 nM. `Cc1nn(CC(F)F)cc1Nc1ncc(Cl)c(Nc2ccccc2NS(C)(=O)=O)n1` [Example 81, N-(2-((5-chloro-2-((1-(2,2-difluoroethyl)-3-methyl-1H-pyrazol-4-yl)amino)pyrimidin-4-yl)amino)phenyl)methanesulfonamide] yielded an IC50 on JAK3 of at most 100 nM. Same read-out and setting: as for `Cc1cc(Nc2ncc(Br)c(Nc3ccccc3NS(C)(=O)=O)n2)nn1C` [Example 51, N-(2-((5-bromo-2-((1,5-dimethyl-1H-pyrazol-3-yl)amino)pyrimidin-4-yl)amino)phenyl)methanesulfonamide], the figure is at most 100 nM. On the same count and under the same terms, as for `CS(=O)(=O)Nc1ccccc1Nc1nc(Nc2cnn(CCCC#N)c2)ncc1F` [Example 66, N-(2-((2-((1-(3-cyanopropyl)-1H-pyrazol-4-yl)amino)-5-fluoropyrimidin-4-yl)amino)phenyl)methanesulfonamide], the figure is at most 100 nM; as for `CS(=O)(=O)Nc1ccccc1Nc1nc(Nc2ccon2)ncc1Br` [Example 50, N-(2-((5-bromo-2-(isoxazol-3-ylamino)pyrimidin-4-yl)amino)phenyl)methanesulfonamide], at most 100 nM. In the case of `CC(C)n1ccc(Nc2ncc(Cl)c(Nc3ccccc3NS(=O)(=O)C3CC3)n2)n1` [Example 54, N-(2-((5-chloro-2-((1-isopropyl-1H-pyrazol-3-yl)amino)pyrimidin-4-yl)amino)phenyl)cyclopropanesulfonamide], on JAK3, the IC50 was 1000 to 10000 nM. Molecule `CCS(=O)(=O)Nc1ccccc1Nc1nc(Nc2cnn(C)c2)ncc1Cl` [Example 57, N-(2-((5-chloro-2-((1-methyl-1H-pyrazol-4-yl)amino)pyrimidin-4-yl)amino)phenyl)ethanesulfonamide] gave a concentration for half-maximal inhibition (IC50) at JAK3 of at most 100 nM.
